Results on 18 compounds are retold here after patent publication US12215093B2, “Bicyclic carboxamides and methods of use thereof” (Tempest Therapeutics, Inc., priority 2018, dated 2025).

In general, IC50 refers to the point on the concentration scale where inhibition reaches its midpoint.

Some results are limits rather than exact numbers.

For one experiment, the target named is T1, EP4 (Homo sapiens, UniProt P35408).
T1 construct: host or cells: stably transfected HEK293 cells co-expressing a promiscuous G protein and a clytin variant
The experiment can be described thus: Functional calcium flux assay, EP4. Format: cell-based. To be noted: stably transfected HEK293 cells; PGE2 10 nM; read-out: EP4 Ca2+-flux assay IC50. (In general: A change in cytosolic calcium serves as a functional read-out for many receptors and channels.)

The next experiment has as its target EP2 (Homo sapiens, UniProt P43116). Put plainly: cell-based.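 Also: functional calcium flux assay in stably transfected HEK293 cells expressing EP2 coupled via a promiscuous G protein, clytin luminescence read as area under the curve, 30 min compound preincubation.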

T1 sequence (P35408 whole entry): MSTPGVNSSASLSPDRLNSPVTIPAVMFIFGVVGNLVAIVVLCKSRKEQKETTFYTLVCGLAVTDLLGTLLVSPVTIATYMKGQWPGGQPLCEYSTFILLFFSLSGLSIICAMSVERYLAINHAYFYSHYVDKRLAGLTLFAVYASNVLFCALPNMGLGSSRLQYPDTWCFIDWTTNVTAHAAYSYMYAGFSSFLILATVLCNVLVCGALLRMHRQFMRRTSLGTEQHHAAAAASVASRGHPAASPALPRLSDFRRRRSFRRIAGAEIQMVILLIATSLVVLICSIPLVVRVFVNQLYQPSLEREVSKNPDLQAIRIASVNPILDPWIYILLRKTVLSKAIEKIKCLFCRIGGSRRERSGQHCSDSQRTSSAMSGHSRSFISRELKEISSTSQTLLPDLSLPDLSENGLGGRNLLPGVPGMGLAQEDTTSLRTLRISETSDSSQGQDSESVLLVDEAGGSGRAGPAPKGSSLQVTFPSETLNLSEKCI
EP2, sequence (P43116 whole entry): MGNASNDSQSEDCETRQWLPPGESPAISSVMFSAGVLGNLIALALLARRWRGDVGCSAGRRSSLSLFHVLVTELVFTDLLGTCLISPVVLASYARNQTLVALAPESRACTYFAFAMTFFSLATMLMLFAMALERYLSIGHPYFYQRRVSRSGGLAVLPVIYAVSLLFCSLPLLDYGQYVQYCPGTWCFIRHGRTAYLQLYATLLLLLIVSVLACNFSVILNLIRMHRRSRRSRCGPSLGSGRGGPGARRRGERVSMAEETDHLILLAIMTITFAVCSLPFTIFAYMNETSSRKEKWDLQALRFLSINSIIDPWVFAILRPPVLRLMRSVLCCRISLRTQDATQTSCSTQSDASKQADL
Experimental for EP2: Each receptor subtype has an additional promiscuous G protein added in order to couple the aforementioned receptor to the calcium signaling pathway. The parental cell line used also expresses a novel variant of clytin, a calcium-activated photo-protein, to enable sensitive luminescent detection. Briefly, cells were plated at 50,000 cells-per-well in black, clear bottom 96-well plates. The plated cells were allowed to sit at room temperature for 30 min prior to transferring to a humidified, 37° C., 5% CO2 incubator for 18 to 24 h. Assay buffer (HBSS with 20 mM HEPES) and loading buffer (assay buffer plus 10 μM coelenterazine) were prepared on the day of the assay. Assays were performed by aspirating media from the assay plate and washing once with assay buffer, then replacing with loading buffer and allowing the cells to incubate for 1.5 h at room temperature. Compounds were prepared in assay buffer at a 3× final concentration in non-binding plates. Compounds were added to the cell plates and incubated for 30 min at room temperature. The prostanoid receptor ligand PGE2 was prepared at a 4× dilution ratio for a final concentration of 10 nM. Plates were run on a Flexstation™ using a 100 ms integration luminescence protocol for a total of 60 sec with ligand addition at 15 sec. Data were obtained from relative light units as measured by area under the curve.

Consider `COc1cc(C#N)cc(-c2ccc(Cn3ccc4c(F)ccc(C(=O)NC5CC6(C5)CC(C(=O)O)C6)c43)cc2)c1` (racemic) [Example 20, (racemic)-6-(1-((3′-cyano-5′-methoxy-[1,1′-biphenyl]-4-yl)methyl)-4-fluoro-1H-indole-7-carboxamido)spiro[3.3]heptane-2-carboxylic acid], for which the concentration for half-maximal inhibition (IC50) on EP4 is < 1 nM; against EP2, < 25 nM.

For the compound `O=C(NC1CC2(C1)CC(C(=O)O)C2)c1ccc(F)c2ccn(Cc3ccc(-c4ccc(OC5COC5)c(Cl)c4)cc3)c12` (racemic) [Example 21, (racemic)-6-(1-((3′-Chloro-4′-(oxetan-3-yloxy)-[1,1′-biphenyl]-4-yl)methyl)-4-fluoro-1H-indole-7-carboxamido)spiro[3.3]heptane-2-carboxylic acid], the concentration for half-maximal inhibition (IC50) at EP4 was 1 nM; at EP2 it was 51 nM.

As for `O=C(NC1CC2(C1)CC(C(=O)O)C2)c1ccc(F)c2ccn(Cc3ccc(-c4ccc(OC5COC5)cc4)cc3)c12` (racemic) [Example 23, (racemic)-6-(4-Fluoro-1-((4′-(oxetan-3-yloxy)-[1,1′-biphenyl]-4-yl)methyl)-1H-indole-7-carboxamido)spiro[3.3]heptane-2-carboxylic acid], the results for the half-maximal inhibitory concentration (IC50) on EP4 and at EP2 were 1 nM and 60 nM, respectively.

In the case of `CC(C)(C)c1ccc(Cn2ccc3c(C#N)ccc(C(=O)NC4CC5(C4)CC(C(=O)O)C5)c32)cc1` (racemic) [Example 27, (racemic)-6-(1-(4-(tert-Butyl)benzyl)-4-cyano-1H-indole-7-carboxamido)spiro[3.3]heptane-2-carboxylic acid], the concentration for half-maximal inhibition (IC50) at EP4 is < 1 nM; against EP2 it was 45 nM.

Take `O=C(NC1CC2(C1)CC(C(=O)O)C2)c1ccc(F)c2ccn(Cc3ccc(N4CCOCC4)cc3)c12` (racemic) [Example 31, (racemic)-6-(4-Fluoro-1-(4-morpholinobenzyl)-1H-indole-7-carboxamido)spiro[3.3]heptane-2-carboxylic acid]: the results for the half-inhibitory concentration (IC50) on EP4 and on EP2 were < 1 nM and 44 nM, respectively.

On to `O=C(NC1CC2(C1)CC(C(=O)O)C2)c1cccc2cnn(Cc3ccc(OC(F)(F)F)cc3)c12` (racemic) [Example 32, (racemic)-6-(1-(4-(Trifluoromethoxy)benzyl)-1H-indazole-7-carboxamido)spiro[3.3]heptane-2-carboxylic acid], for which the values for the IC50 at EP4 and against EP2 were < 1 nM and < 25 nM, respectively.

Turning to `O=C(NC1CC2(C1)CC(C(=O)O)C2)c1cccc2cnn(Cc3ccc(-c4ccccc4)cc3)c12` (racemic) [Example 33, (racemic)-6-(1-([1,1′-biphenyl]-4-ylmethyl)-1H-indazole-7-carboxamido)spiro[3.3]heptane-2-carboxylic acid], the concentration for half-maximal inhibition (IC50) at EP4 is 3 nM; on EP2, < 25 nM.

`CCOc1cc(-c2ccc(Cn3ccc4c(F)ccc(C(=O)NC5CC6(C5)CC(C(=O)O)C6)c43)cc2)ccn1` (racemic) [Example 36, (Racemic)-6-(1-(4-(2-ethoxypyridin-4-yl)benzyl)-4-fluoro-1H-indole-7-carboxamido)spiro[3.3]heptane-2-carboxylic acid]: the IC50 was < 1 nM at EP4 and 72 nM on EP2.

Regarding `CNC(=O)c1cc(-c2ccc(Cn3ncc4c(Cl)ccc(C(=O)NC5CC6(C5)CC(F)(C(=O)O)C6)c43)cc2)ccn1` (racemic) [Example 102, (racemic)-6-(4-chloro-1-(4-(2-(methylcarbamoyl)pyridin-4-yl)benzyl)-1H-indazole-7-carboxamido)-2-fluorospiro[3.3]heptane-2-carboxylic acid], the half-maximal inhibitory concentration (IC50) was 8.9 nM at EP4 and 81 nM against EP2.

On to `O=C(O)CC1CC2(C1)CC(NC(=O)c1cc(F)cc3cnn(Cc4ccc(-c5ccccc5)cc4)c13)C2` (racemic) [Example 107, (racemic)-2-(6-(1-([1,1′-biphenyl]-4-ylmethyl)-5-fluoro-1H-indazole-7-carboxamido)spiro[3.3]heptan-2-yl)acetic acid], for which the values for the half-inhibitory concentration (IC50) at EP4 and at EP2 were < 1 nM and 33 nM, respectively.

Consider `CC(c1ccc(-c2ccccc2)cc1)n1ncc2cccc(C(=O)NC3CC4(C3)CC(C(=O)O)C4)c21` (racemic) [Example 112, (Sa)-6-(1-((racemic)-1-([1,1′-Biphenyl]-4-yl)-ethyl)-1H-indazole-7-carboxamido)spiro[3.3]heptane-2-carboxylic acid], for which the IC50 at EP4 is 1.8 nM; against EP2 it was < 25 nM.

For `CC(c1ccc(-c2ccccc2)cc1)n1ncc2c(Cl)ccc(C(=O)NC3CC4(C3)CC(C(=O)O)C4)c21` (racemic) [Example 121, (Sa)-6-(1-((racemic)-1-([1,1′-biphenyl]-4-yl)-ethyl)-4-chloro-1H-indazole-7-carboxamido)spiro[3.3]heptane-2-carboxylic acid], the IC50 at EP4 is 6.6 nM; at EP2 it was < 25 nM.

Regarding `CCOc1cccc(-c2ccc(C(C)n3ncc4cccc(C(=O)NC5CC6(C5)CC(C(=O)O)C6)c43)cc2)n1` (racemic) [Example 133, (Sa)-6-(1-((racemic)-1-(4-(6-Ethoxypyridin-2-yl)phenyl)-ethyl)-1H-indazole-7-carboxamido)spiro[3.3]heptane-2-carboxylic acid], the half-maximal inhibitory concentration (IC50) is < 1 nM on EP4 and 65 nM against EP2.

For the compound `[2H]C([2H])([2H])C([2H])(c1ccc(-c2ccccc2)cc1)n1ncc2c(Cl)ccc(C(=O)NC3CC4(C3)CC(C(=O)O)C4)c21` (racemic) [Example 166, (Sa)-6-(1-((racemic)-1-([1,1′-Biphenyl]-4-yl)ethyl-1,2,2,2-d4)-4-chloro-1H-indazole-7-carboxamido)spiro[3.3]heptane-2-carboxylic acid], the half-inhibitory concentration (IC50) was found to be 3.9 nM on EP4 and 26 nM against EP2.

`[2H]C([2H])([2H])C([2H])(c1ccc(-c2ccccc2)cc1)n1ncc2cccc(C(=O)NC3CC4(C3)CC(C(=O)O)C4)c21` (racemic) [Example 168, (Sa)-6-(1-((racemic)-1-([1,1′-Biphenyl]-4-yl)ethyl-1,2,2,2-d4)-1H-indazole-7-carboxamido)spiro[3.3]heptane-2-carboxylic acid]: the concentration for half-maximal inhibition (IC50) on EP4 was determined as 1.2 nM; against EP2, 28 nM.

As to `CC(c1ccc(-c2ccccc2)cc1)n1ncc2c(Cl)ccc(C(=O)NC3CC4(C3)CC(C(=O)O)C4)c21` (single isomer, unassigned) [Example 130, (Sa)-6-(1-((R) or (S)-1-([1,1′-biphenyl]-4-yl)-ethyl)-4-chloro-1H-indazole-7-carboxamido)spiro[3.3]heptane-2-carboxylic acid], the IC50 was < 1 nM on EP4 and < 25 nM on EP2.

As to `COc1ccc2cc(-c3ccc(Cn4ccc5c(F)ccc(C(=O)NC6CC7(CC(CC(=O)O)C7)C6)c54)cc3)ccc2n1` (single isomer, unassigned) [Example 137, (Sa)-2-(6-(4-Fluoro-1-(4-(2-methoxyquinolin-6-yl)benzyl)-1H-indole-7-carboxamido)spiro[3.3]heptan-2-yl)acetic acid], the values for the IC50 at EP4 and against EP2 were 3.2 nM and 64 nM, respectively.

As to `COc1ccc2cc(-c3ccc(Cn4ccc5c(F)ccc(C(=O)NC6CC7(CC(CC(=O)O)C7)C6)c54)cc3)ccc2n1` (single isomer, unassigned) [Example 140, (Ra)-2-(6-(4-Fluoro-1-(4-(2-methoxyquinolin-6-yl)benzyl)-1H-indole-7-carboxamido)spiro[3.3]heptan-2-yl)acetic acid], the IC50 was < 1 nM at EP4 and < 25 nM against EP2.
